Data taken from patent US7371780B2, “Use of calphostin C to treat drug-resistant tumor cells” (priority 2003, dated 2008).

Experiments:
MCF-7 cells [1] = assay: Flow cytometric sub-G1 DNA content, MCF-7; type: cell-based, human; conditions: 10 nM paclitaxel or 2 μM doxorubicin
Procedure: For flow cytometric analysis, cells at about 50% to 60% confluence were released from their flasks by trypsin treatment and washed with PBS. After centrifugation at 1000 rpm for 5 min, cells were then fixed by resuspension in 75% ethanol for 2 hours, collected by centrifugation, and resuspended in PI staining solution (see above) for 1 h. For each sample, approximately 2×10^4 cells were analyzed using a Beckman Coulter Epics® Elite flow cytometer. Fluorescence intensity upon stimulation with an argon-ion laser at 488 nm was measured using the PMT4 channel (625DL filter) and plotted against cell number. The percentage of cells with a sub-G1 DNA content was determined by the flow cytometer, adjusting the gates such that only cells with a fluorescence lower than the peak for untreated cells in G1 are counted (see FIG. 4).

MCF-7DOX cells [2] = assay: Drug uptake, MCF-7DOX; type: cell-based, human; conditions: 2 μM doxorubicin or [3H]-paclitaxel
Procedure: (§1) FIG. 5 illustrates the effect of calphostin C (Cal-C) on drug uptake in MCF-7 (square symbols), MCF-7TAX (diamond symbols) and MCF-7DOX (triangular symbols) cells. After one-day growth, the cells were left untreated (closed symbols) or treated with 100 nM calphostin C for 2 h with light activation (open symbols). Cells were then washed and the medium replaced with medium containing 2 μM of doxorubicin (A) or [^3H]-paclitaxel (B). The cells were then trypsinized and drug accumulation measured by flow cytometry (A) or liquid scintillation counting (B) at indicated time points. The figures are representative of three independent experiments.

MCF-7 cells [3] = assay: Clonogenic assay, MCF-7 cells; type: cell-based, human; conditions: Homo sapiens, MCF7, 24 h drug, calphostin C light-activated 2 h, read-out: IC50 (concentration required to kill or inhibit the growth of 50% of cells)
Procedure: (§2) The breast cancer cell line MCF-7 (lot HTB-22) was obtained from the American […] (ATCC) and maintained in Dulbecco's H21 medium (MEM) supplemented with 10% Fetal Bovine Serum (FBS) (HyClone, Logan, Utah) in a humidified atmosphere containing 5% CO2 at 37° C. To establish drug resistant cell lines, MCF-7 cells were grown in the presence of either paclitaxel or doxorubicin, beginning at a concentration 1000-fold below that required to kill 50% of the cells (the IC50). The drug concentration was increased 3-fold every two weeks (two passages), with an aliquot of the cells removed for storage in liquid nitrogen before each increase in concentration. Dose escalation continued until all cells died, after which the cells able to tolerate the highest concentration of drug were thawed for subsequent study. In this way, paclitaxel-resistant (MCF-7TAX) and doxorubicin-resistant (MCF-7DOX) cell lines were established. The IC50 for each drug was determined using a clonogenic assay as outlined below. The drug resistant cells were kept in culture in the presence of the maximally tolerated drug dose. Before each experiment, the cell lines were grown for two days in the absence of drug after which fresh medium containing either calphostin C (Sigma Laboratories, Oakville, ON), doxorubicin (Adriamycin PFS®, USP, Mississauga, ON) or paclitaxel (Taxol, Bristol-Myers Squibb, Montreal, QC) was added at the concentrations indicated.
(§3) The sensitivity of MCF-7, MCF-7TAX and MCF-7DOX cells to calphostin C, paclitaxel or doxorubicin was determined using a clonogenic assay. Briefly, 2.5×10^5 cells were seeded into 25 cm^2 tissue culture flasks in Dulbecco's H21 medium supplemented with 10% FBS. The cells were allowed to grow overnight, after which the medium was removed and replaced with medium containing varying concentrations of paclitaxel, doxorubicin, or calphostin C (after 2 hours of light exposure to activate the molecule). […] The colonies present in 5 randomly selected fields were then counted by visual inspection. […]

MCF-7DOX cells [4] = assay: Microscopic cell morphology, MCF-7DOX; type: cell-based, human; conditions: 2 μM doxorubicin, 24 h
Procedure: (§4) For microscopic observation, cells were seeded onto standard glass coverslips in 10 cm tissue culture plates with 10 ml of H21 medium and grown for 2 days until 40-50% confluence was obtained. After treatment with paclitaxel, doxorubicin or calphostin C, the cells on the glass coverslips were washed twice with PBS (2.7 mM KCl, 1.0 mM KH2PO4, 137 mM NaCl, 10 mM Na2HPO4, pH 7.4) and stained with acridine orange/ethidium bromide (each at 4 μg/ml in PBS) for 10 min at 37° C.. The coverslips were then washed three times in PBS and mounted onto standard glass slides for morphological evaluation. For propidium iodide (PI) staining, the cells on coverslips were washed twice with PBS and fixed in methanol (cooled to −20° C.) for 20 min. Thirty μl of propidium iodide (PI) staining solution (100 μg/ml PI, 0.1% sodium citrate, 100 μg/ml RNase A and 0.3% Nonidet P-40) were then applied to the coverslips for 5 min. […] The cells were then examined using a Zeiss Axiovert 100 inverted fluorescence microscope. […] For each sample, the number of dead cells was determined by visualization after ethidium bromide staining, whereby only dead cells which have lost membrane integrity allow entry of cell-impermeable ethidium bromide into cells to complex with DNA and induce bright red fluorescence. […] The images were recorded and overlayed using Northern Eclipse software (Empix Imaging Inc., Mississauga, ON).

MCF-7TAX cells [5] = assay: Drug uptake, MCF-7TAX; type: cell-based, human; conditions: 2 μM doxorubicin or [3H]-paclitaxel
Procedure: as §1

[6] = test system: MCF-7DOX (doxorubicin-resistant) cells; assay: Clonogenic assay, MCF-7DOX cells; type: cell-based, human; conditions: for fold resistance / lower sensitivity compared to MCF-7 cells: MCF-7DOX vs MCF-7
Procedure: as §2
The sensitivity of MCF-7, MCF-7TAX and MCF-7DOX cells to calphostin C, paclitaxel or doxorubicin was determined using a clonogenic assay. Briefly, 2.5×10^5 cells were seeded into 25 cm^2 tissue culture flasks in Dulbecco's H21 medium supplemented with 10% FBS. The cells were allowed to grow overnight, after which the medium was removed and replaced with medium containing varying concentrations of paclitaxel, doxorubicin, or calphostin C (after 2 hours of light exposure to activate the molecule). After 24 hours, the medium (including any floating cells) was transferred to 14 ml screw-capped tubes and centrifuged at 1000 rpm for 10 min. The adherent cells were then released from their flasks by trypsin treatment and suspended in 10 ml of H21 medium. The cell suspension was transferred to the previous tube and all cells harvested by centrifugation. The cell pellet was washed one more time with drug-free medium and resuspended in 300 μl of normal growth medium containing FBS. The cells were then added to 2.7 ml of a methylcellulose solution. The methylcellulose medium was prepared by combining 70 ml of a 2.6% (w/v) methylcellulose solution [Shin-Etsu Chemical Co., Tokyo, Japan] in Iscove's medium (Princess Margaret Hospital, Toronto, ON) with 30 ml of FBS. Three ml syringes equipped with a 16-gauge needle were used for transferring the viscous medium. The mixture was vigorously vortexed for 10 s to ensure an even distribution of cells within the viscous medium. The vortexed samples were then allowed to sit for 30 min to remove air bubbles. A 1.2 ml aliquot of the cell suspension was then transferred to a 6-well plate and the cells allowed to grow until colonies of >50 cells were visible by light microscopy for the various cell lines in the absence of drug. The colonies present in 5 randomly selected fields were then counted by visual inspection.
Calphostin C (Sigma Laboratories, Oakville, ON) was prepared as a 100 μM stock solution in dimethylsulfoxide (Sigma Laboratories, Oakville, ON) and stored at −70° C. in 100 μl aliquots. […]

MCF-7 cells [7] = assay: Microscopic cell morphology (bright field, AO/EB, PI), MCF-7; type: cell-based, human; conditions: 10 nM paclitaxel, 24 hours, PI staining
Procedure: as §4

MCF-7TAX cells [8] = assay: Microscopic cell morphology, MCF-7TAX; type: cell-based, human; conditions: 10 nM paclitaxel, 24 h
Procedure: as §4

[9] = test system: MCF-7TAX (paclitaxel-resistant) cells; assay: Clonogenic assay, MCF-7TAX cells; type: cell-based, human
Procedure: as §2, §3

[10] = test system: caspase-8 and PARP in Jurkat cells; assay: Immunoblotting of apoptosis markers, Jurkat (positive control); type: cell-based; conditions: 3 μg/ml etoposide, 24 hours
Procedure: FIG. 9 illustrates the effect of calphostin C on caspase 8 cleavage, PARP cleavage, and cytochrome C release in MCF-7, MCF-7FDOX, and MCF-7TAX cells. The MCF-7, MCF-7FDOX, and MCF-7TAX cell lines were incubated with (+) or without (−) 100 nM calphostin C, after which whole cell extracts were monitored for caspase-8 and cytochrome C levels by immunoblotting as described in Materials and Methods. A similar experiment was also performed, except that mitochondrial (M) and cytosolic (C) fractions were prepared as described in Materials and Methods to monitor by immunoblotting the release of cytochrome C from mitochondria into the cytosol in response to calphostin C. As positive controls, similar experiments were conducted using Jurkat cells, with (+) or without (−) the addition of 3 μg/ml etoposide for 24 hours.
Extraction of proteins from whole cells was performed using RIPA buffer (1% NP40, 0.5% sodium deoxycholate, 0.1% SDS, 1 Complete™ protease inhibitor tablet in 50 ml of PBS). Prior to use, the RIPA buffer (50 ml) was supplemented with 500 μl each of both 100 mM sodium orthovanadate and 10 mg/ml phenylmethylsulfonyl fluoride. Cultured cells were grown as a monolayer and allowed to reach 70-90% confluence in 10 cm tissue culture plates. […]

| IC50 ([6]; Homo sapiens, MCF7-DOX, MCF-7DOX cells, 24 h drug, calphostin C light-activated 2 h) [nM] | IC50 ([9]; Homo sapiens, MCF-7TAX cells, 24 h drug, calphostin C light-activated 2 h) [nM] | fold higher IC50 than for MCF-7 cells ([9]; MCF-7TAX vs MCF-7) [fold] | Compound | time of large increase in number of cells with sub-G1 DNA content after drug administration (MCF-7 cells [1]) | drug uptake compared to MCF-7 cells (MCF-7DOX cells [2]) | IC50 (MCF-7 cells [3]) [nM] | change in morphology over untreated cells (MCF-7DOX cells [4]) | drug uptake compared to MCF-7 cells (MCF-7TAX cells [5]) | fold resistance / lower sensitivity compared to MCF-7 cells [6] | percentage of adherent cells multinucleated (MCF-7 cells [7]) | change in morphology over untreated cells (MCF-7TAX cells [8]) | caspase-8 and PARP cleavage [10] |
| --- | --- | --- | --- | --- | --- | --- | --- | --- | --- | --- | --- | --- |
| 600 | – | – | COc1cccc2c1C(=O)c1c(O)c3c(c(O)c1C2=O)C[C@@](O)(C(=O)CO)C[C@@H]3O[C@H]1C[C@H](N)[C@H](O)[C@H](C)O1 [doxorubicin] | approximately 24 hours | dramatically lower | 10 | no change in morphology | dramatically lower | 60 fold | – | – | – |
| – | 27 | 54 | CC(=O)O[C@H]1C(=O)[C@@]2(C)[C@H]([C@H](OC(=O)c3ccccc3)[C@]3(O)C[C@H](OC(=O)[C@H](O)[C@@H](NC(=O)c4ccccc4)c4ccccc4)C(C)=C1C3(C)C)[C@]1(OC(C)=O)CO[C@@H]1C[C@@H]2O [paclitaxel] | approximately 24 hours | dramatically lower | 0.5 | – | dramatically lower | approximately 4000 fold | over 60% | no change in morphology | – |
| – | – | – | COc1cc([C@@H]2c3cc4c(cc3[C@@H](O[C@@H]3O[C@@H]5CO[C@@H](C)O[C@H]5[C@H](O)[C@H]3O)[C@H]3COC(=O)[C@H]23)OCO4)cc(OC)c1O [etoposide] | – | – | – | – | – | – | – | – | could induce caspase-8 and PARP cleavage |
